According to US6596694B2, “Caloporoside derivatives, methods of their preparation and use” (Aventis Pharma Deutschland GmbH, priority 2001, dated 2003):

Molecular target: cyclin D1/CDK4 (Homo sapiens, UniProt P11802)
Assay: Bioassay for CDK-4 inhibitors (phosphorylation of biotinylated peptide substrate, 33P-γ-ATP, flash plates)
Type: biochemical
Details: 2 μM ATP, 2 hours at 37° C., 10 concentrations; read-out: IC50 (concentration which deactivates 50% of CDK-4)
Description: In order to detect the inhibitors of cyclin-dependent kinases (CDKs), use is made of a test in which the phosphorylation rate by the cyclin-dependent kinases of a specific peptide substrate is measured. The cyclin-dependent kinases are activated when the kinase binds to its respective cyclin. A [γ-P]-phosphate is transferred from [γ-P]-ATP to the peptide substrate by the activated CDK. The test is carried out in 96-well microtiter plates. The radioactivity of the [γ-P]-phosphate on the substrate is measured.
IC50 values for the caloporoside derivatives are shown in Table 1; this is the concentration which deactivates 50% of CDK-4.
For the determination of the IC50 value, stock solutions of the caloporoside derivatives according to the invention were prepared in a concentration of 10 mM. […] flash plates were coated with 50 μl (50 μg/well) of biotinylated peptide substrate at room temperature, incubated for 2 hours, and subsequently washed 3× with PBS buffer. For the reaction, 30 μl of a buffer-diluted solution of the caloporoside derivatives and 20 μl of a pre-mixed ATP/cyclin D1/CDK4 solution (final concentration: 1 μCl of 33P-γ-ATP, 2 μM of ATP and 1 μg of enzyme mixture) were pipetted onto the plates. After a reaction time of 2 hours at 37° C., the plates were washed 3× with 80 μl of 3% phosphoric acid. Radioactivity was subsequently measured for 30 seconds in a MicroBeta counter. The percentage inhibition was determined with the aid of mathematical equations. For the determination of IC50 values, 10 different concentrations of the compounds according to the invention in a freshly diluted DMSO solution were tested.

Sequence of cyclin D1/CDK4 (P11802 whole entry, species assumed): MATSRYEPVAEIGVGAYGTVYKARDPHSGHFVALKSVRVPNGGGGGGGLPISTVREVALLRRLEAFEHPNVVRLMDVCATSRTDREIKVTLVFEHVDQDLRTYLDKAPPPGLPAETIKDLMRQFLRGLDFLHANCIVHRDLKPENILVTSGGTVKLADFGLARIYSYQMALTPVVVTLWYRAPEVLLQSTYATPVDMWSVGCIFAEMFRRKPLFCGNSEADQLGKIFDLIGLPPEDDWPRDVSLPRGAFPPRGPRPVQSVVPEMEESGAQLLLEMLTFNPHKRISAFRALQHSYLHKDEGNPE
Sequence of cyclin D1/CDK4 (P24385 whole entry partner, species assumed): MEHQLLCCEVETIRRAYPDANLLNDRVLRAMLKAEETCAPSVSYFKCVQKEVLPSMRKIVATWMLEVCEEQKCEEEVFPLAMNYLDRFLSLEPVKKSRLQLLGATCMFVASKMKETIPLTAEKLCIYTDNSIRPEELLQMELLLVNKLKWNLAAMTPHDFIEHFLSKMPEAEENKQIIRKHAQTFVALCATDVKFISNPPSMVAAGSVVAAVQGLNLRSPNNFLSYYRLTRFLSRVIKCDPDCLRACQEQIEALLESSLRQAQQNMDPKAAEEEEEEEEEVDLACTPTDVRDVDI

In order of falling IC50:
1. CC(=O)Oc1cccc(CCCCCCCCCCCCCCCC(C)OC(=O)C(O)C(O)C(O)C(COC(=O)CC(=O)O)OC2OC(CO)C(O)C(O)C2OC(C)=O)c1C(=O)O (centres unmarked) [Caloporoside C]  3100 nM
2. CC(=O)OC1C(OC(COC(=O)CC(=O)O)C(O)C(O)C(O)C(=O)OC(C)CCCCCCCCCCCCCCCc2cccc(O)c2C(=O)O)OC(CO)C(O)C1O (centres unmarked) [Caloporoside D]  1800 nM
3. CC(=O)OC1C(O)C(CO)OC(OC(COC(=O)CC(=O)O)C(O)C(O)C(O)C(=O)OC(C)CCCCCCCCCCCCCCCc2cccc(O)c2C(=O)O)C1O (centres unmarked) [Caloporoside E]  1800 nM
4. CC(=O)Oc1cccc(CCCCCCCCCCCCCCCC(C)OC(=O)C(O)C(O)C(O)C(CO)OC2OC(CO)C(O)C(O)C2O)c1C(=O)O (centres unmarked) [Caloporoside B]  1500 nM
5. CC(=O)OC1C(OC(CO)C(O)C(O)C(O)C(=O)OC(C)CCCCCCCCCCCCCCCc2cccc(O)c2C(=O)O)OC(CO)C(O)C1O (centres unmarked) [Caloporoside F]  1500 nM
